According to ChEMBL document CHEMBL1649174, “Human immunodeficiency virus type 1 isolates with the reverse transcriptase (RT) mutation Q145M retain nucleoside and nonnucleoside RT inhibitor susceptibility” (2009):

How the values were obtained:
Format in all cases: functional
[1] = tested on: Human immunodeficiency virus 1; assay: Antiviral activity against Human immunodeficiency virus 1 clone pNL4-3-Q145M harboring K102Q, Q145M, S162C, K277R, I293V mutation in reverse transcriptase by phenosense assay relative to wild type
[2] = tested on: Human immunodeficiency virus 1; assay: Antiviral activity against Human immunodeficiency virus 1 clone 38086 harboring K49R, V60I, I135V, Q145M, Q174H, G196E, Q207E, R211K, V245K mutation in reverse transcriptase by phenosense assay relative to wild type
[3] = tested on: Human immunodeficiency virus 1; assay: Antiviral activity against Human immunodeficiency virus 1 clone Q9016 harboring K122E, Q145M, I202V, F214L mutation in reverse transcriptase by phenosense assay relative to wild type
[4] = tested on: Human immunodeficiency virus 1; assay: Antiviral activity against Human immunodeficiency virus 1 clone 14682 harboring 122E, 135V, Q145V, 200A mutation in reverse transcriptase by phenosense assay relative to wild type

Row | SMILES | fold change (FC) [1] | fold change (FC) [2] | fold change (FC) [3] | fold change (FC) [4]
1 | Nc1nc(NC2CC2)c2ncn([C@H]3C=C[C@@H](CO)C3)c2n1 [ABACAVIR] | 1.1 | 0.9 | 1.2 | 1.1
2 | Cc1cn([C@H]2C=C[C@@H](CO)O2)c(=O)[nH]c1=O [STAVUDINE] | 0.9 | 1.1 | 1.1 | 0.9
3 | C[C@H](Cn1cnc2c(N)ncnc21)OCP(=O)(O)O [TENOFOVIR ANHYDROUS] | 0.9 | 0.9 | 1.5 | 0.9
4 | O=c1[nH]cnc2c1ncn2[C@H]1CC[C@@H](CO)O1 [DIDANOSINE] | 1.1 | 1.5 | 0.9 | 1
5 | Cc1cn([C@H]2C[C@H](N=[N+]=[N-])[C@@H](CO)O2)c(=O)[nH]c1=O [ZIDOVUDINE] | 0.7 | 0.9 | 1.1 | 0.8
6 | Nc1nc(=O)n([C@@H]2CS[C@H](CO)O2)cc1F [EMTRICITABINE] | 0.9 | 1.2 | 1.1 | 0.5
7 | O=C1Nc2ccc(Cl)cc2[C@@](C#CC2CC2)(C(F)(F)F)O1 [EFAVIRENZ] | 0.9 | 1 | 1.2 | 1.3
8 | Cc1ccnc2c1NC(=O)c1cccnc1N2C1CC1 [NEVIRAPINE] | 1.3 | 1.1 | 0.7 | 0.5
9 | CC(C)Nc1cccnc1N1CCN(C(=O)c2cc3cc(NS(C)(=O)=O)ccc3[nH]2)CC1 [DELAVIRDINE] | 0.6 | 0.4 | 0.7 | 0.9
